Experimental findings from patent US11986471B2, “Compounds and methods of use” (Tango Therapeutics, Inc., priority 2018, dated 2024) are described below.

Experiment [1] addresses T1, PRMT5 (Homo sapiens, UniProt O14744).
T1 construct: purchased Viva (custom protein)
Put plainly: PRMT5 IC50 assay in the presence of SAM as cofactor. In kind it is biochemical. A digest of the protocol: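 IC50 values were measured against human PRMT5 with SAM, with MTA, or with no cofactor. Ki was derived from IC50 as Ki=IC50/1.5 with SAM and Ki=IC50/13.5 with MTA, and the Ki(SAM)/Ki(MTA) ratio was then taken.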

Experiment [2] concerns the target T1, PRMT5. The experiment can be described thus: PRMT5 IC50 assay with no cofactor. The format is biochemical. Put shortly: (§1)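 Each compound is tested on PRMT5 in the presence of SAM, of MTA, and without any cofactor. Ki values are then back-calculated using fixed factors of 1.5 (SAM) and 13.5 (MTA), and the two Ki values are compared as a ratio.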
Experiment [3] has as its target T1, PRMT5. Put plainly: PRMT5 IC50 assay in the presence of MTA as cofactor. Conditions: for IC50: PRMT5, MTA as cofactor. In kind it is biochemical. Put shortly: as §1
For a further experiment, the system named is HAP1 MTAP-intact. The experiment can be described thus: SDMA in-cell western assay, HAP1 MTAP-intact cell line. In kind it is cell-based. As to conditions: Homo sapiens. A digest of the protocol:
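Symmetric dimethylarginine (SDMA) levels were measured by in-cell western in an isogenic HAP1 pair, one expressing endogenous MTAP and one MTAP-null, and IC50 values were derived for each line. Compounds whose IC50 ratio between the lines is 3-fold or more are classed as MTAP-selective.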

For the next experiment, the system named is HAP1 MTAP-deleted. Put plainly: SDMA in-cell western assay, HAP1 MTAP-deleted cell line. The format is cell-based. Conditions: for IC50: Homo sapiens, HAP1 MTAP-deleted cell line; for MTAP Intact/Deleted Ratio: IC50 ratio HAP1 MTAP-intact / HAP1 MTAP-deleted. A digest of the protocol:
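Symmetric dimethylarginine (SDMA) levels were measured by in-cell western in MTAP-null HAP1 cells, one half of an MTAP-isogenic pair whose partner line expresses endogenous MTAP. Compound potency is reported as IC50.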

Setting [4] is: ratio between the Ki in the presence of SAM and the Ki in the presence of MTA.
The mark [5] stands for this setting: ratio between Ki in the presence of SAM and Ki in the presence of MTA.

T1 sequence (O14744 whole entry): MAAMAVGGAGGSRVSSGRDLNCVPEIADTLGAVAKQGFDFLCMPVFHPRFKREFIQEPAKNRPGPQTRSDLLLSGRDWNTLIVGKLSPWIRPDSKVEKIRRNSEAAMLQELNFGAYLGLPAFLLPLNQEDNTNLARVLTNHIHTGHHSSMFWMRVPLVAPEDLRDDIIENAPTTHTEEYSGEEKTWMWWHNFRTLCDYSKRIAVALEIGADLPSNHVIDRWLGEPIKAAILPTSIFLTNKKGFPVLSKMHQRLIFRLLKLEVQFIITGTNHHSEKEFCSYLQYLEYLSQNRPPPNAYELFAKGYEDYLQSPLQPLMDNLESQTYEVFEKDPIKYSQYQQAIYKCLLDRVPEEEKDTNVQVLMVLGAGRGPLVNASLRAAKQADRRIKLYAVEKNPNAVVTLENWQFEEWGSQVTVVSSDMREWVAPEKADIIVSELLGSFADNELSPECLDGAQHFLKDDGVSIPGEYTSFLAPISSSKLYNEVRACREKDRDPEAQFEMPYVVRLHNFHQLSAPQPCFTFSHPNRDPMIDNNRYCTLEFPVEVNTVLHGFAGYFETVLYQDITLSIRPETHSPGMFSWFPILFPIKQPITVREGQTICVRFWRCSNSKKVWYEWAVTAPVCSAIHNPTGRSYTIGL
T1 sequence (Q9BQA1 whole entry partner): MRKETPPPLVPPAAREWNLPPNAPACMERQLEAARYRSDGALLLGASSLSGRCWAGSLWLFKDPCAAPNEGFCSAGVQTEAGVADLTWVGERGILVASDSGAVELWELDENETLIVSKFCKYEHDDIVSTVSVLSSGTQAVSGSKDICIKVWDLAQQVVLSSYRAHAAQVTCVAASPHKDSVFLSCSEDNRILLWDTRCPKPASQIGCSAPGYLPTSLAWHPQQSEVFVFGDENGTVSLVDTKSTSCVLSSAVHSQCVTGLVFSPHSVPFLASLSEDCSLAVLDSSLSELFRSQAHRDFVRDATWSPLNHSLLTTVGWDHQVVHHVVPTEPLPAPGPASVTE

The IC50 is the concentration at which inhibition is half-maximal. Turning to `O=C(NC[C@H](O)CN1CCc2c(ccc(OCc3cnco3)c2Cl)C1)c1ccnc(N[C@H]2CC[C@H](C(F)(F)F)CC2)c1` [Compound 483, N—((S)-3-(5-chloro-6-(oxazol-5-ylmethoxy)-3N-dihydroisoquinolin-2(1H)-yl)-2-hydroxypropyl)-2-(((1RNS)-4-(trifluoromethyl)cyclohexy)amino)isonicotinamide], the IC50 on PRMT5 [1] is 500 to 5000 nM; at PRMT5 [2] it was not below 5 µM; at PRMT5 [3], 50 to 500 nM; in the experiment with HAP1 MTAP-intact, not below 10 µM; in the experiment with HAP1 MTAP-deleted it was 1000 to 10000 nM. Further, the “SAM/MTA Ratio” value on PRMT5 [3] (setting [4]) was “A (a Ki ratio greater than or equal to 10 fold between the Ki in the presence of SAM and the Ki in the presence of MTA)”. The “MTAP Intact/Deleted Ratio” value with HAP1 MTAP-deleted was “C* (an IC50 ratio of less than 3 fold between the IC50 in the HAP1 MTAP-intact cell line and the HAP1 MTAP-deleted cell line)”.
With `COc1ccc(C(=O)N2CCc3cc(C(=O)NC[C@H](O)CN4CCc5cc(OCc6ocnc6C)ccc5C4)ccc3C2)cc1` [Compound 498, (S)—N-(2-hydroxy-3-(6-((4-methyloxazol-5-yl)methoxy)-3,4-dihydroisoquinolin-2(1H)-yl)propyl)-2-(4-methoxybenzoyl)-1,2,3,4-tetrahydroisoquinoline-6-carboxamide], the IC50 at PRMT5 [1] was 50 to 500 nM; against PRMT5 [2] it was 0.5 to 5 µM; at PRMT5 [3], 50 to 500 nM; in the experiment on HAP1 MTAP-intact, 1 to 10 µM; in the experiment on HAP1 MTAP-deleted it was less than 1000 nM. Further, the “SAM/MTA Ratio” value at PRMT5 [3] (setting [4]) was “A (a Ki ratio greater than or equal to 10 fold between the Ki in the presence of SAM and the Ki in the presence of MTA)”. Also, in the experiment on HAP1 MTAP-deleted, the “MTAP Intact/Deleted Ratio” value was “B* (an IC50 ratio greater than or equal to 3 fold but lower than 10 fold between the IC50 in the HAP1 MTAP-intact cell line and the HAP1 MTAP-deleted cell line)”.
`O=C(NC[C@H](O)CN1CCc2c(ccc(OCc3cnco3)c2Cl)C1)c1ccnc(NC2CCC(F)C2)c1` (stereo partly shown) [Compound 322]: the IC50 at PRMT5 [1] is 50 to 500 nM; on PRMT5 [2] (read-out: No Co-factor IC50) it was not below 5 µM; at PRMT5 [3], 50 to 500 nM; in the experiment on HAP1 MTAP-intact, not below 10 µM; with HAP1 MTAP-deleted, not below 10000 nM. Besides, at PRMT5 [3] (setting [5]), the “SAM/MTA Ratio” value is “A (a Ki ratio greater than or equal to 10 fold between the Ki in the presence of SAM and the Ki in the presence of MTA)”. Moreover, the “MTAP Intact/Deleted Ratio” value in the experiment on HAP1 MTAP-deleted is “C* (an IC50 ratio of less than 3 fold between the IC50 in the HAP1 MTAP-intact cell line and the HAP1 MTAP-deleted cell line)”.
On to `CC(C)CC(=O)N1CCC(Nc2cc(C(=O)NC[C@H](O)CN3CCc4cc(OCc5cnco5)ccc4C3)ccn2)CC1` [Compound 446, N-[(2S)-2-hydroxy-3-[6-(oxazol-5-ylmethoxy)-3,4-dihydro-1H-isoquinolin-2-yl]propyl]-2-[[1-(3-methylbutanoyl)-4-piperidyl]amino]pyridine-4-carboxamide], for which the half-inhibitory concentration (IC50) on PRMT5 [1] is 50 to 500 nM; against PRMT5 [2], 0.5 to 5 µM; on PRMT5 [3], less than 50 nM; in the experiment with HAP1 MTAP-intact, 1 to 10 µM; in the experiment with HAP1 MTAP-deleted it was less than 1000 nM. Further, the “SAM/MTA Ratio” value at PRMT5 [3] (setting [4]) was “A (a Ki ratio greater than or equal to 10 fold between the Ki in the presence of SAM and the Ki in the presence of MTA)”. The “MTAP Intact/Deleted Ratio” value with HAP1 MTAP-deleted is “C* (an IC50 ratio of less than 3 fold between the IC50 in the HAP1 MTAP-intact cell line and the HAP1 MTAP-deleted cell line)”.
`CCC(=O)N1CCC(Nc2cc(C(=O)NC[C@H](O)CN3CCc4cc(OCc5cnco5)ccc4C3)ccn2)CC1` [Compound 460, N-[(2S)-2-hydroxy-3-[6-(oxazol-5-ylmethoxy)-3,4-dihydro-1H-isoquinolin-2-yl]propyl]-2-[(1-propanoyl-4-piperidyl)amino]pyridine-4-carboxamide]: the IC50 at PRMT5 [1] was 50 to 500 nM; against PRMT5 [2] it was 0.5 to 5 µM; at PRMT5 [3], 50 to 500 nM; in the experiment on HAP1 MTAP-intact it was 1 to 10 µM; in the experiment on HAP1 MTAP-deleted, less than 1000 nM. The “SAM/MTA Ratio” value at PRMT5 [3] (setting [4]) is “A (a Ki ratio greater than or equal to 10 fold between the Ki in the presence of SAM and the Ki in the presence of MTA)”. Further, the “MTAP Intact/Deleted Ratio” value with HAP1 MTAP-deleted was “B* (an IC50 ratio greater than or equal to 3 fold but lower than 10 fold between the IC50 in the HAP1 MTAP-intact cell line and the HAP1 MTAP-deleted cell line)”.
`CC(=O)N1CC(Nc2cc(C(=O)NC[C@H](O)CN3CCc4cc(OCc5ocnc5C)ccc4C3)nc(N3CCCCC3)n2)C1` [Compound 534, 6-[(1-acetylazetidin-3-yl)amino]-N-[(2S)-2-hydroxy-3-{6-[(4-methyl-1,3-oxazol-5-yl)methoxy]-1,2,3,4-tetrahydroisoquinolin-2-yl}propyl]-2-(piperidin-1-yl)pyrimidine-4-carboxamide]: the IC50 on PRMT5 [1] was 50 to 500 nM; on PRMT5 [2], 0.5 to 5 µM; at PRMT5 [3], less than 50 nM; with HAP1 MTAP-intact it was 1 to 10 µM; in the experiment on HAP1 MTAP-deleted it was less than 1000 nM. Moreover, the “SAM/MTA Ratio” value on PRMT5 [3] (setting [4]) is “A (a Ki ratio greater than or equal to 10 fold between the Ki in the presence of SAM and the Ki in the presence of MTA)”. Also, in the experiment on HAP1 MTAP-deleted, the “MTAP Intact/Deleted Ratio” value is “A* (an IC50 ratio greater than or equal to 10 fold between the IC50 in the HAP1 MTAP-intact cell line and the HAP1 MTAP-deleted cell line)”.
In the case of `CC(=O)N1CCC(Nc2cc(C(=O)NC[C@@H](O)CN3CCc4cc(OCc5ocnc5C)ccc4C3)ncn2)CC1` [Compound 249, (R)-6-((1-acetylpiperidin-4-yl)amino)-N-(2-hydroxy-3-(6-((4-methyloxazol-5-yl)methoxy)-3N-dihydroisoquinolin-2(1H)-yl)propyl)pyrimidine-4-carboxamide], the IC50 on PRMT5 [1] is 500 to 5000 nM; at PRMT5 [2] (read-out: No Co-factor IC50), not below 5 µM; on PRMT5 [3] it was 500 to 5000 nM; with HAP1 MTAP-intact it was not below 10 µM; with HAP1 MTAP-deleted, not below 10000 nM. Moreover, the “SAM/MTA Ratio” value on PRMT5 [3] (setting [5]) was “A (a Ki ratio greater than or equal to 10 fold between the Ki in the presence of SAM and the Ki in the presence of MTA)”. Also, the “MTAP Intact/Deleted Ratio” value in the experiment on HAP1 MTAP-deleted was “C* (an IC50 ratio of less than 3 fold between the IC50 in the HAP1 MTAP-intact cell line and the HAP1 MTAP-deleted cell line)”.
Regarding `CC(=O)N1CCN(c2nc(NC3COC3)cc(C(=O)NC[C@H](O)CN3CCc4cc(OCc5cnco5)ccc4C3)n2)CC1` [Compound 321], the IC50 on PRMT5 [1] is 50 to 500 nM; at PRMT5 [2] (read-out: No Co-factor IC50) it was 0.5 to 5 µM; at PRMT5 [3] it was 50 to 500 nM; in the experiment with HAP1 MTAP-intact it was not below 10 µM; in the experiment on HAP1 MTAP-deleted, 1000 to 10000 nM. Moreover, the “SAM/MTA Ratio” value on PRMT5 [3] (setting [5]) is “A (a Ki ratio greater than or equal to 10 fold between the Ki in the presence of SAM and the Ki in the presence of MTA)”. The “MTAP Intact/Deleted Ratio” value in the experiment with HAP1 MTAP-deleted is “C* (an IC50 ratio of less than 3 fold between the IC50 in the HAP1 MTAP-intact cell line and the HAP1 MTAP-deleted cell line)”.
`O=C(NC[C@H](O)CN1CCc2c(ccc(OCc3cnco3)c2Cl)C1)c1ccnc(NC2CC(C(F)F)C2)c1` (stereo partly drawn) [Compound 317, (S)—N-(3-(5-chloro-6-(oxazol-5-ylmethoxy)-3,4-dihydroisoquinolin-2(1H)-yl)-2-hydroxypropyl)-2-((3-(difluoromethyl)cyclobutyl)amino)isonicotinamide]: the IC50 on PRMT5 [1] is 500 to 5000 nM; on PRMT5 [2] (read-out: No Co-factor IC50) it was not below 5 µM; on PRMT5 [3] it was 50 to 500 nM; in the experiment with HAP1 MTAP-intact it was not below 10 µM; in the experiment with HAP1 MTAP-deleted, not below 10000 nM. For the same compound, the “SAM/MTA Ratio” value at PRMT5 [3] (setting [5]) is “A (a Ki ratio greater than or equal to 10 fold between the Ki in the presence of SAM and the Ki in the presence of MTA)”. Besides, in the experiment with HAP1 MTAP-deleted, the “MTAP Intact/Deleted Ratio” value was “C* (an IC50 ratio of less than 3 fold between the IC50 in the HAP1 MTAP-intact cell line and the HAP1 MTAP-deleted cell line)”.
For the compound `O=C(NC[C@H](O)CN1CCc2cc(OCc3cnco3)ccc2C1)c1ccc(OC2CCN(Cc3ccccc3)CC2)cc1` [Compound 291, (S)-4-((1-benzylpiperidin-4-yl)oxy)-N-(2-hydroxy-3-(6-(oxazol-5-ylmethoxy)-3,4-dihydroisoquinolin-2(1H)-yl)propyl)benzamide], the half-inhibitory concentration (IC50) at PRMT5 [1] is 50 to 500 nM; on PRMT5 [2] (read-out: No Co-factor IC50) it was 0.5 to 5 µM; at PRMT5 [3], 50 to 500 nM; in the experiment on HAP1 MTAP-intact it was 1 to 10 µM; with HAP1 MTAP-deleted, 1000 to 10000 nM. Moreover, the “MTAP Intact/Deleted Ratio” value in the experiment on HAP1 MTAP-deleted is “C* (an IC50 ratio of less than 3 fold between the IC50 in the HAP1 MTAP-intact cell line and the HAP1 MTAP-deleted cell line)”.
On to `Cc1ncoc1COc1ccc2c(c1C)CCN(C[C@@H](O)CNC(=O)c1cc(NC3CCC3)nc(N3CCN(C)CC3)c1)C2` [Compound 503, 2-(cyclobutylamino)-N-[(2S)-2-hydroxy-3-{5-methyl-6-[(4-methyl-1,3-oxazol-5-yl)methoxy]-1,2,3,4-tetrahydroisoquinolin-2-yl}propyl]-6-(4-methylpiperazin-1-yl)pyridine-4-carboxamide], for which the IC50 at PRMT5 [1] was 50 to 500 nM; at PRMT5 [2], 0.5 to 5 µM; at PRMT5 [3], 50 to 500 nM; with HAP1 MTAP-intact, not below 10 µM; in the experiment on HAP1 MTAP-deleted it was less than 1000 nM. Moreover, at PRMT5 [3] (setting [4]), the “SAM/MTA Ratio” value is “A (a Ki ratio greater than or equal to 10 fold between the Ki in the presence of SAM and the Ki in the presence of MTA)”. Also, the “MTAP Intact/Deleted Ratio” value in the experiment on HAP1 MTAP-deleted is “A* (an IC50 ratio greater than or equal to 10 fold between the IC50 in the HAP1 MTAP-intact cell line and the HAP1 MTAP-deleted cell line)”.
